In patent US20090298752A1, “APLIDINE TREATMENT OF CANCERS” (PHARMA MAR, S.A., priority 1999, published 2009):
Entries after “also recorded” stand apart in the source; their conditions may differ.

Assays:
AP-1 = assay: gel retardation assay, transcription factor binding; type: biochemical; settings: nuclear extracts incubated with aplidine, 60 min
Description: Nuclear extracts were incubated with different aplidine concentrations and labelled oligonucleotides for 60 min. Using gel retardation assay the binding of HIF-1 or AP-1 has been monitored.

[1] = test system: PC-3 prostate tumour cells; assay: in vitro activity on prostate tumour cells; type: cell-based, human
Description: (§1) Different model systems were evaluated to provide the basis for further clinical work. Selective antitumour activities were seen against two histologically different solid tumours: human gastric and prostate carcinomas. Potent in vitro activity to primary gastric tumour specimens or Hs746T gastric tumour cells is evident with IC30 values of 146 and 450 pM, respectively. […] activities were evaluated in nude rodents using sc implanted tumour fragments or hollow fibres (HF) containing tumour cells.

[2] = Phase I, 1 h daily infusion x5 q3wk: toxicity and pharmacokinetics; type: in vivo, human
Description: (§2) The objectives are to determine the Maximum Tolerated Dose, the Dose Limiting Toxicity (DLT), the pharmacokinetics (PK) and the recommended dose for phase 2 studies that can be given in a daily 1 hour IV infusion×5 days q 3 weeks. Patients with solid tumours and low and intermediate grade Non-Hodgkin's Lymphomas were eligible. The daily starting dose of aplidine was 80 μg/m^2. Cohorts of 3 patients (pts) are treated at each level with dose escalation according to toxicity, 20 patients were treated with 6 dose levels ranging from 80 μg-720 μg/m^2, 1 patient is presently at the dose of 960 μg/m^2. At total of 48 cycles were administered. Non-haematological toxicities were grade 1 and 2 with fatigue reported in most pts. Grade 1 hypersensitivity reactions were documented in 7 patients. Other toxicities included nausea, anorexia, diarrhoea, and anxiety. […] PK analysis was performed in treatment course 1. Aplidine concentrations were analysed by LC tandem mass spectrography. […] Potentially therapeutic plasma concentrations ([…]) were achieved. […] Accrual is ongoing at 960 μg/m^2.

[3] = test system: Hs746T gastric tumour cells; assay: in vitro activity on gastric tumour cells; type: cell-based, human
Description: as §1

VEGF = VEGF secretion from IGROV-1; type: cell-based, human
VEGF mRNA = VEGF mRNA levels in IGROV-1; type: cell-based, human
[4] = test system: solid tumours and Non-Hodgkin's Lymphomas; assay: Phase I, 1 h daily infusion x5 q3wk: antitumour activity; type: in vivo, human
Description: as §2

cell cycle = settings: flow cytometric analysis; cited from earlier work

Substance: aplidine
- binding of AP-1 to consensus DNA sequence (AP-1): does not block the binding; also recorded: did not change the ability
- IC50 [1]: 3.4 nM
- DLT ([2]; 80-960 μg/m^2 daily x5): no DLT has been documented
- Bilirubin Grade 1 ([2]; DL 1, 80 ug/m^2): 1
- Diarrhoea Grade 1 ([2]; DL 1, 80 ug/m^2): 1
- Fatigue Grade 1 ([2]; DL 1, 80 ug/m^2): 1
- Fatigue Grade 2 ([2]; DL 1, 80 ug/m^2): 2
- Fever Grade 1 ([2]; DL 1, 80 ug/m^2): 1
- Fever Grade 2 ([2]; DL 1, 80 ug/m^2): 1
- Haemoglobin Grade 1 ([2]; DL 1, 80 ug/m^2): 1
- Haemoglobin Grade 2 ([2]; DL 1, 80 ug/m^2): 2
- Hyper-sensitivity Grade 1 ([2]; DL 1, 80 ug/m^2): 1
- Hyper-sensitivity Grade 2 ([2]; DL 1, 80 ug/m^2): 1
- Motor neuropathy Grade 1 ([2]; DL 1, 80 ug/m^2): 3
- Motor neuropathy Grade 2 ([2]; DL 1, 80 ug/m^2): 2
- Myalgia/weakness Grade 2 ([2]; DL 1, 80 ug/m^2): 1
- Nausea Grade 1 ([2]; DL 1, 80 ug/m^2): 2
- SGOT Grade 1 ([2]; DL 1, 80 ug/m^2): 1
- Sensory neuropathy Grade 1 ([2]; DL 1, 80 ug/m^2): 2
- Sensory neuropathy Grade 2 ([2]; DL 1, 80 ug/m^2): 1
- Haemoglobin Grade 3 ([2]; DL 1, 80 ug/m^2, doubtful): 3
- Diarrhoea Grade 1 ([2]; DL 2, 120 ug/m^2): 2
- Fatigue Grade 1 ([2]; DL 2, 120 ug/m^2): 3
- Haemoglobin Grade 1 ([2]; DL 2, 120 ug/m^2): 2
- Hyper-sensitivity Grade 1 ([2]; DL 2, 120 ug/m^2): 1
- Nausea Grade 1 ([2]; DL 2, 120 ug/m^2): 1
- SGOT Grade 1 ([2]; DL 2, 120 ug/m^2): 1
- Sensory neuropathy Grade 1 ([2]; DL 2, 120 ug/m^2): 2
- Granulocytes Grade 2 ([2]; DL 2, 120 ug/m^2, doubtful): 1
- Haemoglobin Grade 3 ([2]; DL 2, 120 ug/m^2, doubtful): 1
- Haemoglobin Grade 4 ([2]; DL 2, 120 ug/m^2, doubtful): 2
- CPK Grade 4 ([2]; DL 3, 240 ug/m^2): 1
- Creatinine Grade 1 ([2]; DL 3, 240 ug/m^2): 2
- Diarrhoea Grade 2 ([2]; DL 3, 240 ug/m^2): 2
- Fatigue Grade 1 ([2]; DL 3, 240 ug/m^2): 1
- Fatigue Grade 2 ([2]; DL 3, 240 ug/m^2): 1
- Fatigue Grade 3 ([2]; DL 3, 240 ug/m^2): 1
- Haemoglobin Grade 1 ([2]; DL 3, 240 ug/m^2): 1
- Haemoglobin Grade 2 ([2]; DL 3, 240 ug/m^2): 1
- Myalgia/weakness Grade 1 ([2]; DL 3, 240 ug/m^2): 1
- Nausea Grade 1 ([2]; DL 3, 240 ug/m^2): 2
- Nausea Grade 2 ([2]; DL 3, 240 ug/m^2): 1
- SGOT Grade 1 ([2]; DL 3, 240 ug/m^2): 2
- Sensory neuropathy Grade 1 ([2]; DL 3, 240 ug/m^2): 1
- Granulocytes Grade 1 ([2]; DL 3, 240 ug/m^2, doubtful): 1
- Granulocytes Grade 2 ([2]; DL 3, 240 ug/m^2, doubtful): 2
- Haemoglobin Grade 4 ([2]; DL 3, 240 ug/m^2, doubtful): 2
- Creatinine Grade 1 ([2]; DL 4, 360 ug/m^2): 1
- Diarrhoea Grade 1 ([2]; DL 4, 360 ug/m^2): 1
- Fatigue Grade 2 ([2]; DL 4, 360 ug/m^2): 3
- Fever Grade 1 ([2]; DL 4, 360 ug/m^2): 1
- Haemoglobin Grade 1 ([2]; DL 4, 360 ug/m^2): 2
- Haemoglobin Grade 2 ([2]; DL 4, 360 ug/m^2): 2
- Hyper-sensitivity Grade 1 ([2]; DL 4, 360 ug/m^2): 1
- Hyper-sensitivity Grade 2 ([2]; DL 4, 360 ug/m^2): 1
- Motor neuropathy Grade 1 ([2]; DL 4, 360 ug/m^2): 1
- Nausea Grade 1 ([2]; DL 4, 360 ug/m^2): 1
- Nausea Grade 3 ([2]; DL 4, 360 ug/m^2): 1
- SGOT Grade 1 ([2]; DL 4, 360 ug/m^2): 2
- Sensory neuropathy Grade 1 ([2]; DL 4, 360 ug/m^2): 1
- Sensory neuropathy Grade 2 ([2]; DL 4, 360 ug/m^2): 1
- Granulocytes Grade 1 ([2]; DL 4, 360 ug/m^2, doubtful): 1
- Haemoglobin Grade 3 ([2]; DL 4, 360 ug/m^2, doubtful): 1
- Haemoglobin Grade 4 ([2]; DL 4, 360 ug/m^2, doubtful): 2
- CPK Grade 1 ([2]; DL 5, 540 ug/m^2): 1
- Diarrhoea Grade 1 ([2]; DL 5, 540 ug/m^2): 2
- Fatigue Grade 2 ([2]; DL 5, 540 ug/m^2): 2
- Fatigue Grade 3 ([2]; DL 5, 540 ug/m^2): 1
- Fever Grade 2 ([2]; DL 5, 540 ug/m^2): 1
- Haemoglobin Grade 1 ([2]; DL 5, 540 ug/m^2): 1
- Haemoglobin Grade 2 ([2]; DL 5, 540 ug/m^2): 1
- Hyper-sensitivity Grade 1 ([2]; DL 5, 540 ug/m^2): 1
- Motor neuropathy Grade 1 ([2]; DL 5, 540 ug/m^2): 1
- Motor neuropathy Grade 2 ([2]; DL 5, 540 ug/m^2): 1
- Myalgia/weakness Grade 1 ([2]; DL 5, 540 ug/m^2): 1
- Nausea Grade 1 ([2]; DL 5, 540 ug/m^2): 2
- Nausea Grade 3 ([2]; DL 5, 540 ug/m^2): 1
- SGOT Grade 1 ([2]; DL 5, 540 ug/m^2): 2
- Sensory neuropathy Grade 1 ([2]; DL 5, 540 ug/m^2): 2
- Sensory neuropathy Grade 2 ([2]; DL 5, 540 ug/m^2): 1
- Granulocytes Grade 1 ([2]; DL 5, 540 ug/m^2, doubtful): 1
- Haemoglobin Grade 4 ([2]; DL 5, 540 ug/m^2, doubtful): 2
- Bilirubin Grade 1 ([2]; DL 6, 720 ug/m^2): 1
- CPK Grade 1 ([2]; DL 6, 720 ug/m^2): 1
- Diarrhoea Grade 1 ([2]; DL 6, 720 ug/m^2): 1
- Fatigue Grade 1 ([2]; DL 6, 720 ug/m^2): 1
- Fatigue Grade 4 ([2]; DL 6, 720 ug/m^2): 1
- Fever Grade 1 ([2]; DL 6, 720 ug/m^2): 1
- Haemoglobin Grade 2 ([2]; DL 6, 720 ug/m^2): 2
- Hyper-sensitivity Grade 3 ([2]; DL 6, 720 ug/m^2): 1
- Motor neuropathy Grade 3 ([2]; DL 6, 720 ug/m^2): 1
- Myalgia/weakness Grade 4 ([2]; DL 6, 720 ug/m^2): 1
- Nausea Grade 1 ([2]; DL 6, 720 ug/m^2): 3
- SGOT Grade 1 ([2]; DL 6, 720 ug/m^2): 2
- Sensory neuropathy Grade 1 ([2]; DL 6, 720 ug/m^2): 1
- Haemoglobin Grade 3 ([2]; DL 6, 720 ug/m^2, doubtful): 2
- Haemoglobin Grade 4 ([2]; DL 6, 720 ug/m^2, doubtful): 2
- Fatigue Grade 2 ([2]; DL 7, 960 ug/m^2): 2
- Haemoglobin Grade 2 ([2]; DL 7, 960 ug/m^2): 2
- Nausea Grade 1 ([2]; DL 7, 960 ug/m^2): 1
- Nausea Grade 2 ([2]; DL 7, 960 ug/m^2): 1
- Sensory neuropathy Grade 1 ([2]; DL 7, 960 ug/m^2): 1
- Granulocytes Grade 1 ([2]; DL 7, 960 ug/m^2, doubtful): 1
- Haemoglobin Grade 4 ([2]; DL 7, 960 ug/m^2, doubtful): 1
- haematological toxicities ([2]; Example 10): no haematological toxicities
- plasma concentrations achieved ([2]; Example 10): > 1000 ng/mL
- Grade 1 hypersensitivity reactions ([2]; Example 10, 20 patients): 7 patients
- neuropathy or myopathy ([2]; Example 16): No clear evidence of neuropathy or myopathy
- total body / plasma clearance ([2]; median): 0.38 L/min
- IC30 [3]: 0.45 nM
- secretion of VEGF, in words (VEGF): reduce the secretion of VEGF
- mRNA levels of VEGF, in words (VEGF mRNA): reduces the mRNA levels of VEGF
- duration of stable disease, colon cancer ([4]; 1 patient): 9 months
- response, renal cell cancer ([4]; 1 patient): mixed response
- objective responses ([4]; in vivo): No objective responses
- reduction in the size of the tumor, heavily pre-treated CRC ([4]; one patient): 40%
- reduction in sum of tumour measurements, renal cell cancer and liver mets ([4]; one patient, mixed responses): 10%
- duration of stable disease, heavily pre-treated CRC ([4]; one patient, total 13 cycles): ≥ 6 months
- cell cycle pertubations (cell cycle): did not induce any apparent cell cycle pertubations
